For one series, the target named is adenosine A2A receptor (Homo sapiens, UniProt P29274). As to the kind of experiment: Radioligand competition binding, [3H]NECA, membranes of transfected CHO cells. The note with it: Ki A2A (curve of Figure 2B), single experiment. In general terms: Loss of bound radioactivity is the signal in a displacement assay; it reports binding, not function.
In a further series the target is T1, adenosine A1 receptor (Homo sapiens, UniProt P30542).
T1 sequence (P30542 1-326): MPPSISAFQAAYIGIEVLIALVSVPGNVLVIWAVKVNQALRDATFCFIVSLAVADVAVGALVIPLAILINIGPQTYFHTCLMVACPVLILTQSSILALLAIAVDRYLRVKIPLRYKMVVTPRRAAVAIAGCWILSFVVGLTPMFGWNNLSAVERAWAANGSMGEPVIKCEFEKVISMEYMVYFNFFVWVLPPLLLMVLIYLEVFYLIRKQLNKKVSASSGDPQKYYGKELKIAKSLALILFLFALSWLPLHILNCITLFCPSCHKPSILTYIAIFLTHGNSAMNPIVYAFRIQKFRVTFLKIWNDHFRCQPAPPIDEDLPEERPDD
Put plainly: Radioligand competition binding, [3H]CCPA, membranes of transfected CHO cells. The note with it: Ki A1 (curve of Figure 2), single experiment.

A further series addresses T2, A2B receptor (Homo sapiens, UniProt P29275).
T2 sequence (P29275 1-332): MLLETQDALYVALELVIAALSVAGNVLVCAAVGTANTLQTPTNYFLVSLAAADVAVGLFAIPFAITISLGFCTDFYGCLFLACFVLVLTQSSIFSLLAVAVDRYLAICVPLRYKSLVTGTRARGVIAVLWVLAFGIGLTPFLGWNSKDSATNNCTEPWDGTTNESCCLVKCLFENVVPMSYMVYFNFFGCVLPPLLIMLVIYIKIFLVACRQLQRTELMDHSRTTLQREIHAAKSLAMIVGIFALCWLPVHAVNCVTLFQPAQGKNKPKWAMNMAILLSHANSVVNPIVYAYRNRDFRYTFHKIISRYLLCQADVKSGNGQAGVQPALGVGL
As to the kind of experiment: A2B receptor-mediated adenylyl cyclase activity, CHO membranes. It is filed as biochemical.

A further series concerns the target T3, adenosine A3 receptor (Homo sapiens, UniProt P0DMS8).
T3 sequence (P0DMS8 1-318): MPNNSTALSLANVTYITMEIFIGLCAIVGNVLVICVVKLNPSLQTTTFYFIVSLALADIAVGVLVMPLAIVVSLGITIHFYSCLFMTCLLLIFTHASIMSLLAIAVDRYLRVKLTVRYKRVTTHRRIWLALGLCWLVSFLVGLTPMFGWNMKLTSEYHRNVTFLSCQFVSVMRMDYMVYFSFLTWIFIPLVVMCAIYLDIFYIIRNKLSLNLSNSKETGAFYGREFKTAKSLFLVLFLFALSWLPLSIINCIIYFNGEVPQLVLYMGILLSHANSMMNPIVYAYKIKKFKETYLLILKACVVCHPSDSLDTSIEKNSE
As to the kind of experiment: Radioligand competition binding, [3H]HEMADO, membranes of transfected CHO cells.

A further series deals with T4, A1 receptor (Homo sapiens, UniProt P30542).
T4 sequence (P30542 1-326): T1 sequence (P30542 1-326)
It is filed as biochemical. The note with it: for maximal inhibition of forskolin-stimulated adenylyl cyclase: compared with CCPA, n = 3.

The target of the next series is A2A adenosine receptor (Homo sapiens, UniProt P29274). Put plainly: A2A receptor-mediated stimulation of adenylyl cyclase, CHO membranes. It counts as biochemical. The note with it: for efficacy compared to the full agonist NECA: A2A stimulation of adenylyl cyclase, 1 μM NECA control; for agonist character at the A2A adenosine receptor: compared to NECA.
A2A adenosine receptor, sequence (P29274 whole entry): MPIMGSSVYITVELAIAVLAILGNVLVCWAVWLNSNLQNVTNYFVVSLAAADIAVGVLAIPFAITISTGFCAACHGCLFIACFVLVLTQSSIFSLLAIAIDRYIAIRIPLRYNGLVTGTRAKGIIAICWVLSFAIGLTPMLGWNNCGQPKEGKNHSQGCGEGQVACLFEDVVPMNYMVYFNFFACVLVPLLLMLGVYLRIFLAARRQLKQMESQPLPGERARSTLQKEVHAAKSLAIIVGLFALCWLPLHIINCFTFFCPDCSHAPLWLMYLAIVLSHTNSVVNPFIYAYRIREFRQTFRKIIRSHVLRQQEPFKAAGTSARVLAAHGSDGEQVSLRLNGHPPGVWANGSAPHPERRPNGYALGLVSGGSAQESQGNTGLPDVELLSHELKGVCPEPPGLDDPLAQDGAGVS
For series [1], the system named is any adenosine receptor subtype. Put plainly: Radioligand competition binding, stated for any adenosine receptor subtype. Further details: species or system human. The note with it: for binding affinity in words: any adenosine receptor subtype, data not shown; for pKi: read-out: Ki at any of the adenosine receptor subtypes, any subtype.
In series [2] the test system is adenosine receptor subtype A1. The note with it: murine models; ref Lorenzen et al. 1998; cited from earlier work.
The conditions of series [3]: hematopoietic cell transplant; ref Beitinjaneh et al. 2011, Chun et al. 1986, Ding et al. 2008; cited from earlier work.

The structures appear in SMILES notation. pEC50, pIC50, pKi: −log10 of the molar value. Like-named read-outs stand apart in the source and are kept apart here.

adenosine A2A receptor, sequence (P29274 whole entry): as above

In general, pKi refers to the negative decadic logarithm of the Ki, by convention in mol/L. By pEC50 is commonly meant the EC50 on a negative log10 scale, so that one unit is a factor of ten. Lower therefore signals a large EC50. Broadly, the pIC50 is the negative decadic logarithm of the IC50, by convention in mol/L. A lower pIC50 goes with a high IC50. As for `Nc1nc(Cl)nc2c1ncn2[C@@H]1O[C@H](CO)[C@@H](O)[C@@H]1F` [clofarabine, 2-chloro-2′-arabino-fluoro-2′-deoxyadenosine], the pKi was 4.76 on adenosine A2A receptor; 6.61 at adenosine A1 receptor; 5.08 at adenosine A3 receptor (Ki A3 (curve of Figure 2B), [3H]HEMADO, single experiment). Also, the pEC50 on A2B receptor is below 4.00. For the same compound, the “efficacy in decreasing adenylyl cyclase activity, comparison” value on A1 receptor (10 μM, versus equivalent concentrations of fludarabine or cladribine) is listed as “more efficacious”. Further, the pIC50 is 5.51 on A1 receptor (IC50 A1 agonist, adenylyl cyclase inhibition, values in text and abstract); 5.01 against A2A adenosine receptor. Also, the “maximal inhibition of forskolin-stimulated adenylyl cyclase” value (“maximal inhibition” for short) at A1 receptor is given as “comparable to the full A1 receptor agonist CCPA”. Moreover, the “efficacy compared to the full agonist NECA” value at A2A adenosine receptor was “about 50%”. Further, the “agonist character at the A2A adenosine receptor” value at A2A adenosine receptor is “partial agonists”.
On to `Nc1ccn([C@@H]2O[C@H](CO)[C@@H](O)[C@@H]2O)c(=O)n1` [cytarabine, cytosine β-D-arabinofuranoside], for which, in series [1], the “binding affinity in words” value is given as “no detectable affinity” and the pKi was below 4.00.
On adenosine A1 receptor, `Nc1nc(Cl)nc2c1ncn2[C@H]1C[C@H](O)[C@@H](CO)O1` [cladribine, 2-chloro-2′-deoxyadenosine] had a pKi of 5.78. Moreover, at adenosine A3 receptor, the pKi is below 4.00. Moreover, on A1 receptor, the pIC50 was below 5.00 and the “maximal inhibition” value was “comparable to the full A1 receptor agonist CCPA”. In addition, the “agonist character at adenosine receptor subtype A1” value in series [2] is “partial agonist”. In addition, at A2A adenosine receptor, the pIC50 is 4.79, the “efficacy compared to the full agonist NECA” value is around 40% and the “agonist character at the A2A adenosine receptor” value is on record as “partial agonists”.
In the case of `Nc1ccn([C@@H]2O[C@H](CO)[C@@H](O)C2(F)F)c(=O)n1` [gemcitabine, 2′,2′-difluoro-2′-deoxycytidine], in [1], the “binding affinity in words” value was “no detectable affinity” and the pKi was below 4.00.
As for `Nc1nc(F)nc2c1ncn2[C@@H]1O[C@H](COP(=O)(O)O)[C@@H](O)[C@@H]1O` [Fludarabine monophosphate, 2-fluoroadenine-9-β-D-arabinofuranoside-5′phosphate], the “binding affinity in words” value in series [1] is recorded as “no detectable affinity”.
`Nc1nc(F)nc2c1ncn2[C@@H]1O[C@H](CO)[C@@H](O)[C@@H]1O` [fludarabine, 2-fluoroadenine-9-β-D-arabinofuranoside] gave a pKi on adenosine A1 receptor of 5.65. This compound showed a pKi at adenosine A3 receptor below 4.00. Moreover, at A1 receptor, the pIC50 is below 5.00 and the “maximal inhibition” value is “comparable to the full A1 receptor agonist CCPA”. In addition, in series [3], the “patients experiencing mild to severe neurological toxicities” value was 2-10%.

Source of the values: PMC3831620 (Naunyn-Schmiedeberg's archives of pharmacology, 2012).
